Literature values in patent US20090191608A1, “Pancreatic Islet Cell Preparation and Transplantation” (Baylor Research Institute, priority 2008, published 2009).

How the values were obtained:
[1] = in vivo

Molecule	Half-life [1]	Time to reach a new steady-state level after the change of dose [1]	Occurrence of mouth ulcers (most common side effect)	Incidence of heparin-induced thrombocytopenia (in vivo)
CO[C@H]1C[C@@H]2CC[C@@H](C)[C@@](O)(O2)C(=O)C(=O)N2CCCC[C@H]2C(=O)O[C@H]([C@H](C)C[C@@H]2CC[C@@H](O)[C@H](OC)C2)CC(=O)[C@H](C)/C=C(\C)[C@@H](O)[C@@H](OC)C(=O)[C@H](C)C[C@H](C)/C=C/C=C/C=C/1C [Sirolimus]	approximately 3 days	2 weeks	up to 85%	–
Enoxaparin [Lovenox]	–	–	–	0.2%
